Results as given in patent publication US10155987B2, “Methods of predicting resistance to JAK inhibitor therapy” (Dana-Farber Cancer Institute, Inc., priority 2012, dated 2018).

Assays:
[1] = system: BaF3.EpoR cells expressing JAK2V617F with Y931C, G935R, R938L, 1960V or E985K mutation; test: Cell growth in response to JAK2 inhibitors, all five resistance mutants (stated together); type: cell-based, murine; details: summary statement
Experimental: Cell growth in response to various drug concentrations was measured by trypan blue (Sigma) exclusion or with the CellTiter 96® AQueous One Solution Cell Proliferation Assay reagent (Promega, Madison, Wis.).
BaF3.EpoR cell lines expressing potential drug resistant mutant JAK2V617F were generated by retroviral infection, as described previously. […] Polyclonal populations of these cells were used to determine changes in growth in response to various JAK2 inhibitors.

[2] = system: BaF3.EpoR cells expressing JAK2V617F with Y931C mutation; test: Cell growth in response to JAK2 inhibitors, Y931C mutant; type: cell-based, murine
[3] = system: BaF3.EpoR cells expressing JAK2V617F with G935R mutation; test: Cell growth in response to JAK2 inhibitors, G935R mutant; type: cell-based, murine
JAK2 = JAK2 (Homo sapiens, UniProt O60674); details: cited from earlier work
Chain of JAK2 (O60674 whole entry, species assumed): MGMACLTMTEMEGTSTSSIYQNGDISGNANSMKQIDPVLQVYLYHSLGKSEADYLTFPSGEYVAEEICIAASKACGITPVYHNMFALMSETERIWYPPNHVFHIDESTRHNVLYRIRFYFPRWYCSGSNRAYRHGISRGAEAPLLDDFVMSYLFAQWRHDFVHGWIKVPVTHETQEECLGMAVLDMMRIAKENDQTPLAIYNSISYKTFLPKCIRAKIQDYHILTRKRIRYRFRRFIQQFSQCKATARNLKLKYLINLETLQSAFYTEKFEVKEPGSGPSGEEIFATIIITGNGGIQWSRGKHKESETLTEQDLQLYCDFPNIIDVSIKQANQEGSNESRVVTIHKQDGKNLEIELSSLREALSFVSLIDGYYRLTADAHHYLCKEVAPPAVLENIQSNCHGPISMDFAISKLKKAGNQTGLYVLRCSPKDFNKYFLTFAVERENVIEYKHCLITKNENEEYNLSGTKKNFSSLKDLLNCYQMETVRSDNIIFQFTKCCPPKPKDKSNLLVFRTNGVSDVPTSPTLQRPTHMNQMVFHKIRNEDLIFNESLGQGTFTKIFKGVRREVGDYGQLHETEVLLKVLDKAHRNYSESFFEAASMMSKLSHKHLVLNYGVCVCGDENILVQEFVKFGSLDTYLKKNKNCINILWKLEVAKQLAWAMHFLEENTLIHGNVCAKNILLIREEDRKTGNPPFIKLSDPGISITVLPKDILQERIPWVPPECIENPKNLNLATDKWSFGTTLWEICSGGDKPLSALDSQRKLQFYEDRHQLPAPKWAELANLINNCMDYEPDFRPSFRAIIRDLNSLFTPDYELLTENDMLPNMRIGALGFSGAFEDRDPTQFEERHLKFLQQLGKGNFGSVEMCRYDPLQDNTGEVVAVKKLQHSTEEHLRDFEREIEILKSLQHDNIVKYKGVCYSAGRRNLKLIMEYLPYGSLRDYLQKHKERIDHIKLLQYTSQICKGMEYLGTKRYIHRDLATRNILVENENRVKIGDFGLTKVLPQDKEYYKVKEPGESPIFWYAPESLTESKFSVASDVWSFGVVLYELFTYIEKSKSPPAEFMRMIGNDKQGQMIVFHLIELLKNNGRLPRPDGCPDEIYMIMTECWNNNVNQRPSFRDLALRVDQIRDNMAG

Structure (SMILES): Cc1cc(Nc2nc(N[C@@H](C)c3ncc(F)cn3)ncc2Cl)n[nH]1 [AZD1480]
- resistance conferred by the mutations (in words) [1]: cross-resistance
- increase in EC50 compared to native JAK2V617F [2]: > 7 fold
- EC50 ([2]; Mus musculus): > 10 µM
- increase in EC50 compared to native JAK2V617F [3]: > 7 fold
- EC50 ([3]; Mus musculus): > 10 µM

Structure (SMILES): N#CCNC(=O)c1ccc(-c2ccnc(Nc3ccc(N4CCOCC4)cc3)n2)cc1 [CYT-387]
- resistance conferred by the mutations (in words) [1]: cross-resistance

Structure (SMILES): C[C@H](Nc1cc(-c2cnn(C)c2)cc(Nc2cnccn2)n1)c1ccc(F)cc1 [NS018]
- IC50 (JAK2): < 0.001 µM
- selectivity for JAK2 over other JAK-family kinases (JAK2): 30-50 fold

Structure (SMILES): Cc1cnc(Nc2ccc(OCCN3CCCC3)cc2)nc1Nc1cccc(S(=O)(=O)NC(C)(C)C)c1 [TG101348]
- resistance conferred by the mutations (in words) [1]: cross-resistance
